Measured values from US20170173011A1, “METHODS OF TREATING A BRUTON'S TYROSINE KINASE DISEASE OR DISORDER” (Celgene Avilomics Research, Inc., priority 2014, published 2017).

Key:
[1] = tested on: NZBxNZW F1 mouse SLE model; assay: urine protein (proteinuria, Albustix strips) in NZBxNZW F1 mouse SLE model; assay type: in vivo
Description: (§1) Compound 1 besylate was tested in the NZBxNZW Fl mouse SLE model. Treatment efficacy of Compound 1 besylate in this model was compared with cyclophosphamide, and a vehicle control. Principal end measures were autoantibodies against double stranded DNA (dsDNA) and protein in the urine.
Urine analysis was initiated when the animals reached 13-14 weeks of age. Initially urine analysis was performed once in two weeks. When the animals reached 18-19 weeks of age, weekly urine analysis for proteinuria levels was performed using Albustix® Reagent strips for Urinalysis (Bayer, Inc). Results were scored on a 0-4 scale using the following criteria:
When the mice reached 19 weeks of age, all animals were evaluated with respect to their proteinuria scores. Based on that evaluation, […] mice were selected and assigned to 6 groups of 10 mice each and one group of 5 mice. The mice were assigned such that the distributions of proteinuria scores among all groups were as uniform as possible.
(§2) Treatment was administered when the mice reached ˜20 weeks of age as follows:
(§3) Proteinuria: Urine was tested once every two weeks when the animals reached ˜13 weeks of age. Urine analysis was preformed midweek at approximately the same time of the day. Weekly urine analysis commenced when the animals reached the age of ˜18 weeks. Proteinuria levels were evaluated using Albustix urine strips. Serum was collected via collection of blood from tail bleeds when animals reached 13 weeks in age, then prior to initiating the treatment and thereafter twice a month.

[2] = tested on: NZBxNZW F1 mouse SLE model; assay: anti-dsDNA autoantibody quantitation by ELISA in serum, NZBxNZW F1 mouse SLE model; assay type: in vivo
Description: as §1
Female NZBxNZW FI mice were housed in filter-top Nalgene cages, maintained on a 12-hour light/12-hour dark cycle with a room temperature of 70° F.+/−4° F. Mice were allowed to acclimate to the laboratory environment for approximately 5-7 days to ascertain their continued good health. Irradiated laboratory rodent chow and autoclaved water were supplied ad libitum.
Eighty NZBxNZW F1 female mice ˜12 weeks in age were obtained from Jackson Laboratory and were acclimatized for one week. After the acclimatization period was complete, each mouse that was successfully acclimatized was ear tagged and body weight recorded.
An initial bleed was performed prior to treatment initiation and serum prepared from the blood sampled. Serum samples were stored at −80° C. Following treatment initiation, blood was collected once every two weeks during the in-life phase for subsequent serum preparation.
as §2, §3
Results. Individual autoantibody development in NZBxNZW Fl mice over time is depicted in FIG. 1A. Serum samples were collected from vehicle treated mice at the times indicated and an anti-dsDNA quantitation by ELISA performed. During the course of measurement from 18 weeks of age to 36 weeks of age, six (6) out of ten (10) mice developed autoantibodies against dsDNA greater than 400 KU/ml during the course of disease development and eight out of ten developed dsDNA antibodies greater than 200 kU/ml.

NZBxNZW F1 mice = conditions: literature; cited from earlier work
B6.sle1 mouse SLE model = conditions: literature (Hutcheson et al.); reduced anti histone, anti ssDNA, kidney lymphocytes and renal damage; cited from earlier work

## C=CC(=O)Nc1cccc(Nc2nc(Nc3ccc(OCCOC)cc3)ncc2F)c1 [Compound 1 besylate, N-(3-(5-fluoro-2-(4-(2-methoxyethoxy)phenylamino)pyrimidin-4-ylamino)phenyl)acrylamide besylate]
[1]; 50 mg/kg BID PO for 12 weeks
  protein levels measured in the urine relative to vehicle (FIG. 2): reduced protein levels
[1]; 100 mg/kg QD PO for 12 weeks
  protein levels measured in the urine relative to vehicle (FIG. 2): reduced protein levels
[1]; across dose groups
  urine protein, dose dependence: dose-associated trend of reduced urine protein
[2]; 50 mg/kg BID PO for 12 weeks, vehicle: six (6) of ten (10)
  number of treated mice that developed dsDNA antibodies over 400 kU/ml: 2 of ten (10) treated mice
[2]; 50 mg/kg BID PO, of ten treated mice
  number of mice with nearly complete suppression of anti-dsDNA development: 6 mice
[2]; 50 mg/kg BID PO, weeks 29 through 33
  anti-dsDNA autoantibody development (FIG. 1C): reduced anti-dsDNA autoantibody development
[2]; 50 mg/kg BID PO, weeks 35 and 36, of ten treated mice
  number of mice with blunted anti-dsDNA responses at the end of the study: 2 mice

## N#CN1CCCC(n2nc(-c3ccc(Oc4ccc(F)cc4F)cc3)c(C(N)=O)c2N)C1 (centres unmarked) [PF-06250112]
NZBxNZW F1 mice
  effect on lupus nephritis / SLE in NZBxNZW F1 mice: efficacious

## CN1CCN(c2ccc(Nc3cc(-c4cccc(-n5ccc6cc(C7CC7)cc(F)c6c5=O)c4CO)cn(C)c3=O)nc2)CC1 [RN486]
NZBxNZW F1 mice
  effect on lupus nephritis / SLE in NZBxNZW F1 mice: efficacious

## O=P1(N(CCCl)CCCl)NCCCO1 (centres unmarked) [Cyclophophamide, Cyclophosphamide]
NZBxNZW F1 mice
  effect on lupus nephritis / SLE in NZBxNZW F1 mice: inhibit lupus nephritis

## C=CC(=O)N1CCC[C@@H](n2nc(-c3ccc(Oc4ccccc4)cc3)c3c(N)ncnc32)C1 [PCI 32765/Ibrutinib]
B6.sle1 mouse SLE model
  efficacy in B6.sle1 mouse SLE model: efficacious
